What all share (type): biochemical
For experiment [1], the target named is ITK (Homo sapiens (Human), UniProt Q08881). The experiment is described as follows: IC50 against ITK.
Experiment [2] has as its target TXK (Homo sapiens (Human), UniProt P42681). The experiment is described as follows: IC50 against TXK. The conditions noted are these: for TXK/ITK: ratio of TXK IC50 to ITK IC50.
Experiment [3] deals with JAK3 (Homo sapiens (Human), UniProt P52333). The experiment is described as follows: IC50 against JAK3.
Sequence of JAK3 (P52333 whole entry, species assumed): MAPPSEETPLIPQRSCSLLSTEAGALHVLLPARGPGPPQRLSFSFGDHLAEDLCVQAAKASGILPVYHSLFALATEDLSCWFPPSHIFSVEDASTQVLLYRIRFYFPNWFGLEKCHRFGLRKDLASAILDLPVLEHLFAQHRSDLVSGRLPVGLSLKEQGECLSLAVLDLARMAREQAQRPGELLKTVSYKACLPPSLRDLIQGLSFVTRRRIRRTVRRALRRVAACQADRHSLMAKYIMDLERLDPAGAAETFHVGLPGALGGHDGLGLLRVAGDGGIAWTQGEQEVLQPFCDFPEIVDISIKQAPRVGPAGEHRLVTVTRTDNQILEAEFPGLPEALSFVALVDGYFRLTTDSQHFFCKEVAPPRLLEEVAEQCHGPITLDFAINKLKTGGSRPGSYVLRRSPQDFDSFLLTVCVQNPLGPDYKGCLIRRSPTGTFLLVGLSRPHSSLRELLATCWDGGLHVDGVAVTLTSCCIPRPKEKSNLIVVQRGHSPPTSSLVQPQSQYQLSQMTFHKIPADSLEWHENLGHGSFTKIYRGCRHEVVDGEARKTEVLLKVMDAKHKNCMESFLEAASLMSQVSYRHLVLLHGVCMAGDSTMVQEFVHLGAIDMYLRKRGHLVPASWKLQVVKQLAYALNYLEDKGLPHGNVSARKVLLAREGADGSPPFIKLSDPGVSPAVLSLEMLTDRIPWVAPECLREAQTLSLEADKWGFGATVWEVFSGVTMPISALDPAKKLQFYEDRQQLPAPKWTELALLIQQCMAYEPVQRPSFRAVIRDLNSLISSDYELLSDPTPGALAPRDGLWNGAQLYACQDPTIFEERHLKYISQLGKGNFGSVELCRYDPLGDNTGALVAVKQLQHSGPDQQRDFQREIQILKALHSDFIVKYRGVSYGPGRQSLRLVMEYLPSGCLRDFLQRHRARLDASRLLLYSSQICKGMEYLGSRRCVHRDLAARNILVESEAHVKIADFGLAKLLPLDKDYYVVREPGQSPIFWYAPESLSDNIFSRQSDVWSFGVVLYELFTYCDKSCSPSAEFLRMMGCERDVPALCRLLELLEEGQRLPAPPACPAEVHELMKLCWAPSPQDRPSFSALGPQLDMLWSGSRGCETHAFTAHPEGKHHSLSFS
The target of experiment [4] is BTK (Homo sapiens (Human), UniProt Q06187). The experiment can be described thus: IC50 against BTK.
Sequence of BTK (Q06187 whole entry, species assumed): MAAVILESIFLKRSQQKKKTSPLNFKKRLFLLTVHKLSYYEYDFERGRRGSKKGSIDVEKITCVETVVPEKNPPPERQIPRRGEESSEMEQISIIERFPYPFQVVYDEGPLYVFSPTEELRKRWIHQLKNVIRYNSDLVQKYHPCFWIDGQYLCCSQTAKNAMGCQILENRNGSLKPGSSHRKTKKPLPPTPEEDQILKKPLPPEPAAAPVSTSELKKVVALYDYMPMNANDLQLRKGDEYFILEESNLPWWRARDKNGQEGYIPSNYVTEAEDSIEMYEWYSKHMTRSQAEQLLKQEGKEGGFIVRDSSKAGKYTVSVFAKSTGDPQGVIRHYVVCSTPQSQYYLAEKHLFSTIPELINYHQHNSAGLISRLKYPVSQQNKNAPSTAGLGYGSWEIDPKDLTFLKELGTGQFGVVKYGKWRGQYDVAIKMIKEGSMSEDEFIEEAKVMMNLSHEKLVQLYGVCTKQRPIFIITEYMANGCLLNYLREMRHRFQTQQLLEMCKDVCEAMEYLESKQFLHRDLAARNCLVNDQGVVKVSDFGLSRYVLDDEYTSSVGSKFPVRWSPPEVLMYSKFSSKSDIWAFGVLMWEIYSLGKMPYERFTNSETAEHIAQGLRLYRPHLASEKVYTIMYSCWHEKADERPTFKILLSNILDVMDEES

Bounds are passed on as bounds.

Sequence of ITK (Q08881 whole entry): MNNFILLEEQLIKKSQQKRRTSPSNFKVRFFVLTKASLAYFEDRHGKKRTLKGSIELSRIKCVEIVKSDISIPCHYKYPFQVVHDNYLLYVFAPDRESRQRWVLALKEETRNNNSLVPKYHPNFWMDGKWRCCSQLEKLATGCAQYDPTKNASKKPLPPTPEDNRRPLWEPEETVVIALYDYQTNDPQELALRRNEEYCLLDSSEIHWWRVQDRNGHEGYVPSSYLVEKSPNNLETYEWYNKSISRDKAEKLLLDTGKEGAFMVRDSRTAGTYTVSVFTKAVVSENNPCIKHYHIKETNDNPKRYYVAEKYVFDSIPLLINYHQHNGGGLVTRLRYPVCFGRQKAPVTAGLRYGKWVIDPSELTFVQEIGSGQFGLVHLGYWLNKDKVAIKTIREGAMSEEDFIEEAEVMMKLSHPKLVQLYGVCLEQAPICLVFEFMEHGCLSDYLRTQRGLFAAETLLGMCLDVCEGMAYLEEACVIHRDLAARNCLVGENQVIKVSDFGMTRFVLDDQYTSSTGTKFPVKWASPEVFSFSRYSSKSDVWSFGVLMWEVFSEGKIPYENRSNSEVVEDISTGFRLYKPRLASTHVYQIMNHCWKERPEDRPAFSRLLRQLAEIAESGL
Sequence of TXK (P42681 whole entry, species assumed): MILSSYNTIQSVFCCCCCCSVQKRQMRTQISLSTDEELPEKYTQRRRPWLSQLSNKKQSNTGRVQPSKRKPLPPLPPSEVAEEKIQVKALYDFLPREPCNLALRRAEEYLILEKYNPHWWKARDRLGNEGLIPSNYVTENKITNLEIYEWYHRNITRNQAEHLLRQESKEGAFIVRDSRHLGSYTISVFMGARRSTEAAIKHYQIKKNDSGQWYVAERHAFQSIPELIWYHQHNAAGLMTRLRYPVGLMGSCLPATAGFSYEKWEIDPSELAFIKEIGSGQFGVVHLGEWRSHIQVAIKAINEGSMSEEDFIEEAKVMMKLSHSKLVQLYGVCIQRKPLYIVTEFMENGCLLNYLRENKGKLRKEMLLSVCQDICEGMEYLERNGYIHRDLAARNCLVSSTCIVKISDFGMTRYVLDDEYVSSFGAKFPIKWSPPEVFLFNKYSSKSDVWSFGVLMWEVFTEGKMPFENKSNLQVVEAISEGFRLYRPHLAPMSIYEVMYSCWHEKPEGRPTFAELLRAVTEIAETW

The IC50 is the concentration needed to halve the response being measured. High values mean weaker potency, low ones greater potency. Consider `C=CC(=O)N1CCCN(C(=O)c2cc(Sc3cnc(NC(=O)N(C)C)s3)c(C)cc2OC)C[C@H]1C` [Compound 110], for which the IC50 in experiment [1] was 100 to 1000 nM; in experiment [2], not below 10000 nM; in experiment [3] it was 1000 to 10000 nM; in experiment [4], not below 10000 nM. Moreover, the TXK/ITK in experiment [2] was 46.6.

Turning to `C=CC(=O)N1CCN(C(=O)c2cc(Sc3cnc(NC(=O)C4CC4)s3)c(C)cc2C)C[C@H]1C#N` [Compound 118], the half-maximal inhibitory concentration (IC50) in experiment [1] is not below 10000 nM; in experiment [2] it was less than 10 nM; in experiment [3], less than 10 nM; in experiment [4], less than 10 nM.

As for `C=CC(=O)N1CCN(C(=O)c2cc(Sc3cnc(NC(=O)c4ccc(CN(C)C)cc4)s3)c(C)cc2OC)CC1` [Compound 34], the IC50 in experiment [1] was less than 10 nM; in experiment [2] it was 10 to 100 nM; in experiment [3] it was 100 to 1000 nM; in experiment [4], 10 to 100 nM. In experiment [2], the TXK/ITK is 33.121.

With `C=CC(=O)N1CCN(C(=O)c2cc(Sc3cnc(NC(=O)c4nccn4C)s3)c(C)cc2OC)CC1` [Compound 96], the IC50 in experiment [1] is less than 10 nM; in experiment [2], 10 to 100 nM; in experiment [3] it was 100 to 1000 nM; in experiment [4] it was 100 to 1000 nM. Further, the TXK/ITK in experiment [2] is on record as 11.966.

Regarding `C=CC(=O)N1CCN(C(=O)c2cc(Sc3cnc(NC(=O)c4cnn(CCN(C)C)c4)s3)c(C)cc2OC)CC1` [Compound 102], the 50% inhibitory concentration (IC50) is less than 10 nM in experiment [1], 10 to 100 nM in experiment [2], 100 to 1000 nM in experiment [3] and 10 to 100 nM in experiment [4]. Further, the TXK/ITK in experiment [2] turned out to be 32.9.

As for `C=CC(=O)N1CCN(C(=O)c2cc(Sc3cnc(NC(=O)C4CC4)s3)c(C)cc2OC)C[C@@H]1C` [Compound 22], the IC50 in experiment [1] was less than 10 nM; in experiment [2] it was 10 to 100 nM; in experiment [3], 100 to 1000 nM; in experiment [4], 100 to 1000 nM. Moreover, in experiment [2], the TXK/ITK worked out at 6.7674.

`C=CC(=O)N1CCCN(C(=O)c2cc(Sc3cnc(NC(=O)C4CC4)s3)c(C)cc2OC)C[C@H]1C(C)C` [Compound 148, (R)-N-(5-((5-(4-acryloyl-3-isopropyl-1,4-diazepane-1-carbonyl)-4-methoxy-2-methylphenyl)thio)thiazol-2-yl)cyclopropanecarboxamide]: the IC50 in experiment [1] is less than 10 nM; in experiment [2], 100 to 1000 nM; in experiment [3] it was not below 10000 nM; in experiment [4] it was 100 to 1000 nM. Further, in experiment [2], the TXK/ITK came out at 82.31.

As to `C=CC(=O)N1CCN(C(=O)c2cc(Sc3cnc(NC(=O)c4cnn(C)c4)s3)c(C)cc2C)CC1` [Compound 108], the IC50 in experiment [1] is less than 10 nM; in experiment [2] it was 10 to 100 nM; in experiment [3], 100 to 1000 nM; in experiment [4] it was 100 to 1000 nM. For the same molecule, in experiment [2], the TXK/ITK was determined as 12.1.

For the molecule `C=CC(=O)N1CCCN(C(=O)c2cc(Sc3cnc(NC(=O)c4cnsc4)s3)c(C)cc2OC)C[C@H]1C` [Compound 93], the concentration for half-maximal inhibition (IC50) in experiment [1] is less than 10 nM; in experiment [2], 100 to 1000 nM; in experiment [3] it was not below 10000 nM; in experiment [4] it was 1000 to 10000 nM. In addition, in experiment [2], the TXK/ITK is given as 252.91.

On to `C=CC(=O)N1CCCN(C(=O)c2cc(Sc3cnc(NC(=O)C4CC4)s3)c(C)cc2OC)C[C@H]1CC` [Compound 111], for which the IC50 in experiment [1] is less than 10 nM; in experiment [2], 100 to 1000 nM; in experiment [3], 1000 to 10000 nM; in experiment [4], 100 to 1000 nM. Moreover, the TXK/ITK in experiment [2] stood at 81.1.

Regarding `C=C(C)C(=O)N1CCCN(C(=O)c2cc(Sc3cnc(NC(=O)c4cccc(CN(C)C)c4)s3)c(C)cc2OC)CC1` [Compound 39], the IC50 in experiment [1] was 100 to 1000 nM; in experiment [2], 1000 to 10000 nM; in experiment [3], not below 10000 nM; in experiment [4], not below 10000 nM. Besides, the TXK/ITK in experiment [2] came to 1.5.

In the case of `C=CC(=O)N1CCCN(C(=O)c2cc(Sc3cnc(NC(=O)c4cccc(CN[C@H](C)C(C)(C)C)c4)s3)c(C)cc2OC)CC1` [Compound 56], the IC50 in experiment [1] is less than 10 nM; in experiment [2], 1000 to 10000 nM; in experiment [3], 1000 to 10000 nM; in experiment [4], 100 to 1000 nM. The TXK/ITK in experiment [2] is reported as 168.17.

Regarding `C=CC(=O)N1CCN(C(=O)c2cc(Sc3cnc(Nc4ccccn4)s3)c(C)cc2OC)CC1` [Compound 98], the half-inhibitory concentration (IC50) in experiment [1] was less than 10 nM; in experiment [2], less than 10 nM; in experiment [3], 10 to 100 nM; in experiment [4], less than 10 nM. For the same molecule, the TXK/ITK in experiment [2] is recorded as 8.2157.

For `C=CC(=O)N1CCCN(C(=O)c2cc(Sc3cnc(NC(=O)c4cccc(CN5CCOCC5)c4)s3)c(C)cc2OC)CC1` [Compound 49], the IC50 in experiment [1] was in the range of 10 to 100 nM; in experiment [2], 1000 to 10000 nM; in experiment [3], 1000 to 10000 nM; in experiment [4], 1000 to 10000 nM. Besides, the TXK/ITK in experiment [2] came out at 37.652.

On to `C=CC(=O)N1CCCN(C(=O)c2cc(Sc3cnc(NC(=O)C4CC4)s3)c(Cl)cc2C)C[C@H]1C` [Compound 62], for which the IC50 was less than 10 nM in experiment [1], 1000 to 10000 nM in experiment [2], 1000 to 10000 nM in experiment [3] and 1000 to 10000 nM in experiment [4]. Further, the TXK/ITK in experiment [2] is 320.16.

Consider `C=CC(=O)N1CCN(C(=O)c2cc(Sc3cnc(NC(=O)c4ccncc4)s3)c(C)cc2OC)CC1` [Compound 87], for which the IC50 in experiment [1] is less than 10 nM; in experiment [2], 100 to 1000 nM; in experiment [3] it was 1000 to 10000 nM; in experiment [4], 100 to 1000 nM. For the same molecule, the TXK/ITK in experiment [2] is on record as 74.161.

For `C=CC(=O)N1CCN(C(=O)c2cc(Sc3cnc(NC(=O)c4ccc(N5CCN(C(=O)OC(C)(C)C)CC5)cc4)s3)c(C)cc2OC)CC1` [Compound 40], the 50% inhibitory concentration (IC50) in experiment [1] was less than 10 nM; in experiment [2], 10 to 100 nM; in experiment [3], 100 to 1000 nM; in experiment [4], 100 to 1000 nM. In addition, the TXK/ITK in experiment [2] is listed as 14.491.

As to `C=CC(=O)N1CCN(C(=O)c2cc(Sc3cnc(NC(=O)C4CC4)s3)c(C)cc2CC)CC1` [Compound 106], the half-inhibitory concentration (IC50) in experiment [1] is less than 10 nM; in experiment [2] it was less than 10 nM; in experiment [3], 10 to 100 nM; in experiment [4], 10 to 100 nM. Besides, in experiment [2], the TXK/ITK is listed as 2.9.

As for `C=CC(=O)N1CCN(C(=O)c2cc(Sc3cnc(NC(=O)c4cccc(CN(C)C)c4)s3)c(C)cc2C)CC1` [Compound 107], the half-inhibitory concentration (IC50) in experiment [1] was less than 10 nM; in experiment [2], 10 to 100 nM; in experiment [3] it was 100 to 1000 nM; in experiment [4] it was 100 to 1000 nM. Further, the TXK/ITK in experiment [2] turned out to be 61.8.

With `C=CC(=O)N1CCN(C(=O)c2cc(Sc3cnc(NC(=O)c4cccc(CN(C)C)c4)s3)c(C)cc2OC)CC1` [Compound 14], the IC50 is less than 10 nM in experiment [1], 100 to 1000 nM in experiment [2], 1000 to 10000 nM in experiment [3] and 100 to 1000 nM in experiment [4]. In addition, the TXK/ITK in experiment [2] came out at 79.163.

For the molecule `C=CC(=O)N1CCN(C(=O)c2cc(Sc3cnc(NC(=O)C4CCCC4)s3)c(C)cc2OC)CC1` [Compound 31], the IC50 in experiment [1] fell in the range of 10 to 100 nM; in experiment [2] it was 100 to 1000 nM; in experiment [3], 1000 to 10000 nM; in experiment [4], 1000 to 10000 nM. In addition, in experiment [2], the TXK/ITK was 19.291.

Turning to `C=CC(=O)N1CCCN(C(=O)c2cc(Sc3cnc(NC(=O)c4ccsc4)s3)c(C)cc2OC)C[C@H]1C(C)C` [Compound 149, (R)-N-(5-((5-(4-acryloyl-3-isopropyl-1,4-diazepane-l-carbonyl)-4-methoxy-2-methylphenyl)thio)thiazol-2-yl)thiophene-3-carboxamide], the half-maximal inhibitory concentration (IC50) in experiment [1] was less than 10 nM; in experiment [2] it was 100 to 1000 nM; in experiment [3] it was not below 10000 nM; in experiment [4], 10 to 100 nM. Besides, the TXK/ITK in experiment [2] stood at 171.45.

On to `C=CC(=O)N1CCN(C(=O)c2cc(Sc3cnc(Nc4ccccn4)s3)c(C)cc2OC)C[C@H]1C#N` [Compound 153, (S)-1-acryloyl-4-(2-methoxy-4-methyl-5-((2-(pyridin-2-ylamino)thiazol-5-yl)thio)benzoyl)piperazine-2-carbonitrile], for which the IC50 in experiment [1], in experiment [3] and in experiment [4] was less than 10 nM in each case. Also, in experiment [2], the TXK/ITK amounted to 0.61.

`C=CC(=O)N1CCCN(C(=O)c2cc(Sc3cnc(NC(=O)c4cnsc4)s3)c(C)cc2C)C[C@H]1CC` [Compound 123]: the half-inhibitory concentration (IC50) was less than 10 nM in experiment [1], 100 to 1000 nM in experiment [2], 1000 to 10000 nM in experiment [3] and 100 to 1000 nM in experiment [4]. Besides, the TXK/ITK in experiment [2] came to 144.0.

Take `C=CC(=O)N1CCCN(C(=O)c2cc(Sc3cnc(NC(=O)C4CC4)s3)c(C)cc2OC)[C@@H](C)C1` [Compound 72]: the half-inhibitory concentration (IC50) in experiment [1] is 100 to 1000 nM; in experiment [2] it was 1000 to 10000 nM; in experiment [3] it was not below 10000 nM; in experiment [4] it was not below 10000 nM. In experiment [2], the TXK/ITK was found to be 1.1846.

In the case of `C=CC(=O)N1CC2(CCN(C(=O)c3cc(Sc4cnc(NC(=O)C5CC5)s4)c(C)cc3OC)C2)C1` [Compound 45], the IC50 was less than 10 nM in experiment [1], less than 10 nM in experiment [2], 10 to 100 nM in experiment [3] and 10 to 100 nM in experiment [4]. Also, the TXK/ITK in experiment [2] stood at 4.1551.

On to `C=CC(=O)N1CCCN(C(=O)c2cc(Sc3cnc(NC(=O)C4CC4)s3)c(C)cc2C)C[C@H]1C` [Compound 59], for which the IC50 is less than 10 nM in experiment [1], 100 to 1000 nM in experiment [2], 1000 to 10000 nM in experiment [3] and 1000 to 10000 nM in experiment [4]. In experiment [2], the TXK/ITK is 166.05.

`C=CC(=O)N1CCN(C(=O)c2cc(Sc3cnc(NC(=O)c4cnsc4)s3)c(C)cc2OC)C[C@H]1CC` [Compound 114]: the half-inhibitory concentration (IC50) in experiment [1] was less than 10 nM; in experiment [2], 10 to 100 nM; in experiment [3] it was 1000 to 10000 nM; in experiment [4], 100 to 1000 nM. Besides, the TXK/ITK in experiment [2] was 30.1.

For the molecule `C=CC(=O)N1CCC2(C1)CN(C(=O)c1cc(Sc3cnc(NC(=O)C4CC4)s3)c(C)cc1OC)C2` [Compound 46], the half-maximal inhibitory concentration (IC50) in experiment [1] is less than 10 nM; in experiment [2], less than 10 nM; in experiment [3], 100 to 1000 nM; in experiment [4] it was 10 to 100 nM. For the same molecule, the TXK/ITK in experiment [2] is 3.4072.

These data come from patent US11008314B2, “Compounds and methods for modulating interleukin-2-inducible t-cell kinase” (CORVUS PHARMACEUTICALS, INC., priority 2016, dated 2021).
